This is an account of results in patent EP1169036B1, “ANTI-VIRAL USES OF LEFLUNOMIDE PRODUCTS” (priority 1998, dated 1999).

Structures are written as SMILES. Where two headings read alike, the source gives them in different places. A value given as a limit tells only on which side of the number the result lay.

The conditions of series [1]: in vivo; cited from earlier work.
The test system of series [2] is Rhinovirus Type 5. In words: Neutral red uptake test. In kind it is cell-based. As to conditions: Enterovirus, read-out: Neutral Red Uptake test EC50. The text has this: Environment. Microbiol, 31:35-38, 1976).
Series [3] has as its system Respiratory Syncytial Virus A. Nature of the series: microbe, parasite or virus in culture. As to conditions: human respiratory syncytial virus, MA104; read-out: Neutral Red Uptake test EC50. Format: cell-based.
Series [4] deals with Rhinovirus Type 5. In words: microbe, parasite or virus in culture. Format: cell-based. As to conditions: Enterovirus; read-out: CPE Inhibition test EC50.
Series [5] has as its system Measles Virus. In words: microbe, parasite or virus in culture. Format: cell-based. As to conditions: Measles morbillivirus, CV-1; read-out: CPE Inhibition test EC50.
In series [6] the test system is uninfected cells. Nature of the series: Cytotoxicity, microscopic reading of uninfected cells in the CPE inhibition test (rhinovirus host cells, not named). Format: cell-based. The method, then: (§1) Cytotoxicity of each test compound is also evaluated as follows. In the initial CPE inhibition tests, two wells of uninfected cells treated with each concentration of test compound are run in parallel with the infected, treated wells. When the CPE is determined microscopically, the toxicity control cells are also examined microscopically for any changes in cell appearance compared to normal uninfected, untreated control cells. Changes, which may manifest as enlargement, granularity, ragged edges, filmy appearance, rounding, detachment from the surface of the well, or other changes, are given a designation of T (100% toxic), PVH (partially toxic-very heavy-80%), PH (partially toxic-heavy-60%), P (partially toxic-40%), PS (partially toxic-slight-20%) or 0 (no toxicity-0%) in accordance with the degree of cytotoxicity observed. […] A neutral red IC50 is also determined based on uptake of neutral red dye by the toxicity control cells.

Series [7] concerns Madin Darby canine kidney (MDCK) cells. Nature of the series: cells. In kind it is cell-based. To be noted: Canis lupus familiaris, cytotoxic concentration, positive control drug = ribavirin, read-out: Neutral Red Uptake test IC50.
Series [8] concerns Parainfluenza Type 3 Virus. In words: organism not typed. To be noted: MA104; read-out: Neutral Red Uptake test EC50. In kind it is cell-based.
The test system of series [9] is Parainfluenza Type 3 Virus. In words: organism not typed. In kind it is cell-based. To be noted: MA104; read-out: CPE Inhibition test EC50.
In series [10] the test system is African green monkey kidney (CV-1) cells. In words: cells. To be noted: Chlorocebus sabaeus, read-out: CPE Inhibition test IC50. Format: cell-based.
Series [11] relates to African green monkey kidney (MA-104) cells. In words: cells. Format: cell-based. As to conditions: Chlorocebus sabaeus, MA104, cytotoxic concentration, positive control drug = ribavirin, read-out: CPE Inhibition test IC50.
For series [12], the system named is Madin Darby canine kidney (MDCK) cells. Nature of the series: cells. In kind it is cell-based. To be noted: Canis lupus familiaris, cytotoxic concentration, positive control drug = ribavirin, read-out: CPE Inhibition test IC50.
Series [13] has as its system African green monkey kidney (MA-104) cells. In words: Cytotoxicity, neutral red uptake by toxicity control cells. Format: cell-based. To be noted: Chlorocebus sabaeus, read-out: Neutral Red Uptake test IC50.
Series [14] concerns uninfected cells. Nature of the series: Cytotoxicity, neutral red uptake by toxicity control cells (rhinovirus host cells, not named). As to conditions: read-out: Neutral Red Uptake test IC50. In kind it is cell-based. As for the experimental part: as §1
Series [15] concerns African green monkey kidney (CV-1) cells. In words: cells. In kind it is cell-based. As to conditions: Chlorocebus sabaeus, read-out: Neutral Red Uptake test IC50.
The subject of series [16] is Measles Virus. In words: microbe, parasite or virus in culture. As to conditions: Measles morbillivirus, CV-1; read-out: Neutral Red Uptake test EC50. Format: cell-based.
In series [17] the test system is Adenovirus Type 1. In words: microbe, parasite or virus in culture. In kind it is cell-based. To be noted: Human mastadenovirus C, A549; read-out: Neutral Red Uptake test EC50.
In series [18] the test system is human lung carcinoma (A549) cells. Nature of the series: cells. In kind it is cell-based. As to conditions: read-out: CPE Inhibition test IC50.
Series [19] has as its system Adenovirus Type 1. In words: microbe, parasite or virus in culture. In kind it is cell-based. To be noted: Human mastadenovirus C, A549; read-out: CPE Inhibition test EC50.
Series [20] relates to Respiratory Syncytial Virus A. Nature of the series: microbe, parasite or virus in culture. In kind it is cell-based. As to conditions: human respiratory syncytial virus, MA104; read-out: CPE Inhibition test EC50.
Series [21] concerns CMV strain VHL/E or strain BUR/E. Format: cell-based. To be noted: HUVEC, A771726 200 µM, CsA 100 ng/ml, FK 506 1 ng/ml.
Another series relates to CMV strain VHL/E. In words: Immunohistochemical staining of CMV proteins in infected HUVEC. Format: cell-based. The method, then:
Experiments were conducted to determine at which point in the viral replication cycle leflunomide exerts its inhibitory effects. Immediately upon penetration of the host cell, CMV lower matrix protein pp65, a component of the viral tegument, translocates to the cell nucleus. Although the nuclear function of pp65 remains to be resolved, another tegument protein (pp71) that migrates in a similar manner acts in concert with cellular proteins to promote rapid transcription of immediate early (IE) viral genes. IE gene products are primarily regulatory, activating early gene transcription, whose products are essential for viral DNA replication. Activation of late genes, which code primarily for structural protein components of the virion, occurs late in the replicative cycle and is dependent upon viral DNA replication.
To localize potential A771726-induced lesions in this temporal series of events, a cross section of CMV proteins in infected cells was first visualized by immunohistochemical staining as follows. CMV strain VHL/E-inoculated HUVEC monolayers incubated in the presence or absence of 200 µM A771726 or 1 mM phosphonoformate (PFA) (as a positive control for late antigen inhibition) were fixed at various intervals and stained with mAb specific for pp65, 72 kD IE1, or late structural glycoprotein B (gB). […]

A further series has as its target T1, CMV DNA polymerase (Human cytomegalovirus, UniProt P08546).
T1 construct: Crude protein extracts prepared from CMV-infected HUVEC or HFF; endogenous in cells; host or cells: HUVEC infected with CMV VHL/E or BUR/E, and HFF infected with CMV P8; Cells were sonicated and the clarified crude lysate was used
In kind it is biochemical. To be noted: extracts of VHL/E-infected HUVEC or P8-infected HFF; PFA result at 1 mM.

For the next series, the system named is CMV DNA. In kind it is cell-based. To be noted: CMV-infected HFF (100 µM A771726) , identical in HUVEC (200 µM); 1 mM PFA; 48 hours.
The subject of series [22] is rat CMV (RCMV RA67, Maastricht strain). Nature of the series: Viral load in nude rats inoculated with rat CMV, plaque assay of tissue homogenates. In kind it is in vivo, immunodeficient nude rats. As to conditions: leflunomide 15 mg/kg/day for 14 days, 14 days post-inoculation.
For the next series, the system named is hepatitis C. Nature of the series: Clinical treatment of a patient with chronic hepatitis C, viral load by quantitative PCR. In kind it is in vivo, human. The method, then: The patient is a person who received a liver transplant in January 1990 for hepatitis C. Over the following nine years they developed indolent hepatitis C with mildly elevated liver enzymes. Because of slowly progressive kidney impairment, presumably related to a combination of chronic hepatitis C and long term cyclosporine A treatment, they were started on leflunomide treatment. […] After an initial leflunomide loading dose of 300 mg daily for two days, a maintenance dose of 50 mg daily was started.
As the new treatment regimen was implemented, their kidney function improved; their serum creatinine fell from 3.6 mg/dl to 2.2 mg/dl and their BUN fell from 94 mg/dl to 55 mg/dl. Just before leflunomide was begun their hepatitis C viral load in peripheral blood was 3,120,000 copies, measured by quantitative PCR (Quest Diagnostics). After six weeks of therapy with leflunomide, their hepatitis C viral load had fallen to 1,480,000 copies, measured by the same PCR methodology.

[23] abbreviates: run with Respiratory Syncytial Virus A.
Setting [24] is: MA104, cytotoxic concentration, run with Parainfluenza Type 3 Virus, positive control drug = ribavirin.

T1 sequence (P16790 whole entry): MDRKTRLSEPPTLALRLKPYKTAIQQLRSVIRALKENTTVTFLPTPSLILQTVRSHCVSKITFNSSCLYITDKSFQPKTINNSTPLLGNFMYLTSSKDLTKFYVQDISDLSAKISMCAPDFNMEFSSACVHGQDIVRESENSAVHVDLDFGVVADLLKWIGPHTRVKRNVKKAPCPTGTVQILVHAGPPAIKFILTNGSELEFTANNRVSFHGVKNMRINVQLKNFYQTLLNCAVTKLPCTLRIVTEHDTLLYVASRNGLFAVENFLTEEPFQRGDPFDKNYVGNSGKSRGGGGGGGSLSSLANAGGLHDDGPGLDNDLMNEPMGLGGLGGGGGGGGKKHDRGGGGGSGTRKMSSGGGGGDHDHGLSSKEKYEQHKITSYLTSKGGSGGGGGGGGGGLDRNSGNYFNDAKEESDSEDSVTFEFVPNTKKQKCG
T1 sequence (P08546 whole entry): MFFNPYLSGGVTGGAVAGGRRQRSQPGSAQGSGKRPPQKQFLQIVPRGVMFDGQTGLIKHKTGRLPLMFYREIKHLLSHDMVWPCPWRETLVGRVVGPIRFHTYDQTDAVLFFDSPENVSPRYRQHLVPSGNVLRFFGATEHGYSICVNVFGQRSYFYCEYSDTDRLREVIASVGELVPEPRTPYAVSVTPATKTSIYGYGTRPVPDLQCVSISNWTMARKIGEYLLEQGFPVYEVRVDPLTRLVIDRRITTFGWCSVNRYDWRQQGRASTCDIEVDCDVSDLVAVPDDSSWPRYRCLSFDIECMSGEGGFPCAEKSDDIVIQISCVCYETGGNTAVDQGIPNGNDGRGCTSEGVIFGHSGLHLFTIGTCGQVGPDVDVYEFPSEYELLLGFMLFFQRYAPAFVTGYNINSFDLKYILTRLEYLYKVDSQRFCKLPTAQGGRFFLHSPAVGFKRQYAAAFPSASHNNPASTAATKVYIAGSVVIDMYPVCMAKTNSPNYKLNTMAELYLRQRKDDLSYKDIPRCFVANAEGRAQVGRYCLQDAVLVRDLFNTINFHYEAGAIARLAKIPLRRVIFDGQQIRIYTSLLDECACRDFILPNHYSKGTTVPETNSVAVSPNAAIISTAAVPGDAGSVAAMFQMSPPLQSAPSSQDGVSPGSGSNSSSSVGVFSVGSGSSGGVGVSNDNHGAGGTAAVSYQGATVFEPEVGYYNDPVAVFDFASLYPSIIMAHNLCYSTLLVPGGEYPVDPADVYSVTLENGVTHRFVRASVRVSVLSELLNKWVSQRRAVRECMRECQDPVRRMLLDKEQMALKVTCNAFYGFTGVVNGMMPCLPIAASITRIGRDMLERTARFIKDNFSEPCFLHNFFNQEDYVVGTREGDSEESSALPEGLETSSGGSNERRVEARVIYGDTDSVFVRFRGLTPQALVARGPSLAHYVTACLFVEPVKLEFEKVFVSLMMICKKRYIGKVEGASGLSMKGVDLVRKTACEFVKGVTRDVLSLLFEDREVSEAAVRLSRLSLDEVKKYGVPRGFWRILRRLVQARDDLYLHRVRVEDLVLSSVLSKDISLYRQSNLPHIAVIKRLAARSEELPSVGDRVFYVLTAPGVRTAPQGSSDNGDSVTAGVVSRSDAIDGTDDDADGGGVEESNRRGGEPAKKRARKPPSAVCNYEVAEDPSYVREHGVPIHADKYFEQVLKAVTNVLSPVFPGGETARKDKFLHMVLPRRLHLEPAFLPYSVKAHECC

For the compound `Nc1ccn(C[C@@H](CO)OCP(=O)(O)O)c(=O)n1` [Cidofovir], the “Neutropenia, share of recipients” value in series [1] is reported as “approximately 10%”.

For the compound `Cc1nocc1C(=O)Nc1ccc(C(F)(F)F)cc1` [Compound 99-126, N-(4-trifluoromethylphenyl)-3-methylisoxazol-4-carboxamide], the EC50 was above 100 µM with Rhinovirus Type 5 [2]; above 100 µM in series [3]; 100 µM in the series on Rhinovirus Type 5 [4]; 10 µM in the series with Measles Virus [5]; 20 µM in series [8]; above 100 µM in [9]. The EC50 was 14 µM in the series on Measles Virus [16], above 100 µM in the series on Adenovirus Type 1 [17], above 100 µM in the series with Adenovirus Type 1 [19] and above 100 µM in series [20]. Besides, the IC50 with uninfected cells [6] was 100 µM; in series [7] (run with Influenza A (H1N1)), 48 µM; in series [7] (run with Influenza A (H3N2)) it was 30 µM; in series [7] (run with Influenza B), 46 µM; in [10] it was 60 µM; in series [11] (run with Parainfluenza Type 3 Virus), 11 µM. The IC50 in [11] (setting [23]) stood at 40 µM; in series [12] (run with Influenza A (H1N1)), 63 µM; in [12] (run with Influenza A (H3N2)), 72 µM; in [12] (run with Influenza B), 72 µM; in series [13] (setting [24]), 20 µM; in [13] (MA104) it was 30 µM. In addition, the IC50 is above 100 µM in the series with uninfected cells [14], 25 µM in [15] and 60 µM in series [18].

On to `Cc1oncc1C(=O)Nc1cccc(C(F)(F)F)c1` [Compound 99-127, N-(3-trifluoromethylphenyl)-5-methylisoxazol-4-carboxamide], for which the EC50 (in series [3]; in the series on Measles Virus [5]; in series [8]; in series [9]; with Measles Virus [16]; in series [20]) was above 100 µM each time. In addition, the IC50 in [7] (run with Influenza A (H1N1)) is 66 µM; in series [7] (run with Influenza A (H3N2)) it was 46 µM; in [7] (run with Influenza B), 60 µM; in series [10], 60 µM; in [11] (setting [23]) it was 30 µM; in [12] (run with Influenza A (H1N1)), above 200 µM. Moreover, the IC50 in series [12] (run with Influenza A (H3N2)) is 63 µM; in series [12] (run with Influenza B), above 200 µM; in series [13] (setting [24]), 15 µM; in series [13] (MA104) it was 20 µM; in series [15], 30 µM.

Regarding `C=CC[C@@H]1/C=C(\C)C[C@H](C)C[C@H](OC)[C@H]2O[C@@](O)(C(=O)C(=O)N3CCCC[C@H]3C(=O)O[C@H](/C(C)=C/[C@@H]3CC[C@@H](O)[C@H](OC)C3)[C@H](C)[C@@H](O)CC1=O)[C@H](C)C[C@@H]2OC` [FK 506, tacrolimus], in [21], the “production of infectious virus (CMV production)” value was “no significant inhibition”.

As for `O=C([O-])P(=O)(O)O.[Na+]` [PFA, sodium phosphonoformate], the “toxicities (renal dysfunction, hypomagnesemia, hypokalemia, hypocalcemia, seizures, fever, rash), each, share of recipients” value in [1] is listed as “more than 5%”. Besides, the “expression of viral proteins pp65, IE1, gB” value in the series on CMV strain VHL/E (200 µM A771726 or 1 mM PFA, 24, 48, 96 hours pi) was “unable to express gB”. Further, the “pp65 and IE1 expression” value with CMV strain VHL/E (1 mM PFA) is reported as “unimpeded”. Besides, the “viral DNA polymerase activity” value on CMV DNA polymerase is reported as “complete inhibition”. In addition, the “quantities of viral DNA synthesized” value with CMV DNA is on record as “no detectable CMV DNA”.

With `Cc1oncc1C(=O)Nc1ccc(C(F)(F)F)cc1` [leflunomide, N-(4-trifluoromethylphenyl)-5-methylisoxazol-4-carboxamide], in [22], the “viral load in salivary gland, lung and spleen” value is “significantly reduced viral load”. In addition, the “hepatitis C viral load in peripheral blood” value in the series on hepatitis C (after six weeks of leflunomide (300 mg daily two days, then 50 mg daily), 3,120,000 copies before) is on record as 1,480,000 copies. The “drop in hepatitis C viral load” value in the series with hepatitis C (one patient, six weeks of leflunomide therapy) came to 50%.
